Test results reported in ChEMBL document CHEMBL1201862, “PubChem BioAssay data set” (2004).
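Growth conditions: 96-well plates. Treatment: test compound, 48 hours, 5 concentrations. Analysis: linear interpolation between bracketing concentrations; unreached endpoints set to highest concentration. GI50 is the concentration that inhibits growth by half.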 Active and inactive are the calls of the source. No stated cut-off is given here; in the data, active = GI50 up to about 1.1 µM and inactive = higher.

Tests used:
Experiment in all cases: NCI-60 cell line screen, 48 h
786-0 = system: 786-0
A498 = system: A498
A549 = system: A549
ACHN = system: ACHN
BT-549 = system: BT-549
CAKI-1 = system: CAKI-1
CCRF-CEM = system: CCRF-CEM
COLO 205 = system: COLO 205
DU-145 = system: DU-145
EKVX = system: EKVX
HCC 2998 = system: HCC 2998
HCT-116 = system: HCT-116
HCT-15 = system: HCT-15
HL-60 = system: HL-60
HOP-62 = system: HOP-62
HOP-92 = system: HOP-92
HT-29 = system: HT-29
Hs-578T = system: Hs-578T
IGROV-1 = system: IGROV-1
K562 = system: K562
KM12 = system: KM12
LOX IMVI = system: LOX IMVI
M14 = system: M14
MCF7 = system: MCF7
MDA-MB-231 = system: MDA-MB-231
MDA-MB-435 = system: MDA-MB-435
MDA-N = system: MDA-N
Malme-3M = system: Malme-3M
NCI-H226 = system: NCI-H226
NCI-H23 = system: NCI-H23
NCI-H460 = system: NCI-H460
NCI-H522 = system: NCI-H522
NCI/ADR-RES = system: NCI/ADR-RES
OVCAR-3 = system: OVCAR-3
OVCAR-4 = system: OVCAR-4
OVCAR-5 = system: OVCAR-5
OVCAR-8 = system: OVCAR-8
PC-3 = system: PC-3
RPMI-8226 = system: RPMI-8226
RXF 393 = system: RXF 393
SF-268 = system: SF-268
SF-295 = system: SF-295
SF-539 = system: SF-539
SK-MEL-28 = system: SK-MEL-28
SK-MEL-2 = system: SK-MEL-2
SK-MEL-5 = system: SK-MEL-5
SK-OV-3 = system: SK-OV-3
SN12C = system: SN12C
SNB-19 = system: SNB-19
SNB-75 = system: SNB-75
SR = system: SR
SW-620 = system: SW-620
T47D = system: T47D
TK-10 = system: TK-10
U-251 = system: U-251
UACC-257 = system: UACC-257
UACC-62 = system: UACC-62
UO-31 = system: UO-31
MOLT-4 = system: MOLT-4

Compound: COc1cc(OC)c(C2(c3c(OC(C)C)c(=O)c3=O)SCCCS2)cc1OC
- GI50 (786-0): > 100 µM (inactive)
- GI50 (A498): > 100 µM (inactive)
- GI50 (A549): > 100 µM (inactive)
- GI50 (ACHN): > 100 µM (inactive)
- GI50 (BT-549): > 100 µM (inactive)
- GI50 (CAKI-1): > 100 µM (inactive)
- GI50 (CCRF-CEM): > 100 µM (inactive)
- GI50 (COLO 205): > 100 µM (inactive)
- GI50 (DU-145): > 100 µM (inactive)
- GI50 (EKVX): > 100 µM (inactive)
- GI50 (HCC 2998): > 100 µM (inactive)
- GI50 (HCT-116): > 100 µM (inactive)
- GI50 (HCT-15): > 100 µM
- GI50 (HL-60): > 100 µM (inactive)
- GI50 (HOP-62): > 100 µM (inactive)
- GI50 (HOP-92): > 100 µM (inactive)
- GI50 (HT-29): > 100 µM (inactive)
- GI50 (Hs-578T): > 100 µM (inactive)
- GI50 (IGROV-1): > 100 µM (inactive)
- GI50 (K562): > 100 µM (inactive)
- GI50 (KM12): > 100 µM (inactive)
- GI50 (LOX IMVI): > 100 µM (inactive)
- GI50 (M14): > 100 µM (inactive)
- GI50 (MCF7): > 100 µM (inactive)
- GI50 (MDA-MB-231): > 100 µM (inactive)
- GI50 (MDA-MB-435): > 100 µM (inactive)
- GI50 (MDA-N): > 100 µM (inactive)
- GI50 (Malme-3M): > 100 µM (inactive)
- GI50 (NCI-H226): > 100 µM (inactive)
- GI50 (NCI-H23): > 100 µM (inactive)
- GI50 (NCI-H460): > 100 µM (inactive)
- GI50 (NCI-H522): > 100 µM (inactive)
- GI50 (NCI/ADR-RES): > 100 µM (inactive)
- GI50 (OVCAR-3): > 100 µM (inactive)
- GI50 (OVCAR-4): > 100 µM (inactive)
- GI50 (OVCAR-5): > 100 µM (inactive)
- GI50 (OVCAR-8): > 100 µM (inactive)
- GI50 (PC-3): > 100 µM (inactive)
- GI50 (RPMI-8226): > 100 µM (inactive)
- GI50 (RXF 393): > 100 µM (inactive)
- GI50 (SF-268): > 100 µM (inactive)
- GI50 (SF-295): > 100 µM (inactive)
- GI50 (SF-539): > 100 µM (inactive)
- GI50 (SK-MEL-28): > 100 µM (inactive)
- GI50 (SK-MEL-2): > 100 µM (inactive)
- GI50 (SK-MEL-5): > 100 µM (inactive)
- GI50 (SK-OV-3): > 100 µM (inactive)
- GI50 (SN12C): > 100 µM (inactive)
- GI50 (SNB-19): > 100 µM (inactive)
- GI50 (SNB-75): > 100 µM (inactive)
- GI50 (SR): > 100 µM (inactive)
- GI50 (SW-620): > 100 µM (inactive)
- GI50 (T47D): > 100 µM (inactive)
- GI50 (TK-10): > 100 µM (inactive)
- GI50 (U-251): > 100 µM (inactive)
- GI50 (UACC-257): > 100 µM (inactive)
- GI50 (UACC-62): > 100 µM (inactive)
- GI50 (UO-31): > 100 µM (inactive)

Compound: Cc1ccc2c(n1)C(=O)c1cc(C)c(C)cc1C2=O
- GI50 (786-0): 62.1 µM (inactive)
- GI50 (A498): > 100 µM (inactive)
- GI50 (A549): 64.9 µM (inactive)
- GI50 (ACHN): > 100 µM (inactive)
- GI50 (BT-549): > 100 µM (inactive)
- GI50 (CAKI-1): > 100 µM (inactive)
- GI50 (CCRF-CEM): > 100 µM (inactive)
- GI50 (COLO 205): 32 µM (inactive)
- GI50 (DU-145): > 100 µM (inactive)
- GI50 (EKVX): 50.8 µM (inactive)
- GI50 (HCC 2998): 98.2 µM (inactive)
- GI50 (HCT-116): 47.6 µM (inactive)
- GI50 (HCT-15): 75.9 µM
- GI50 (HL-60): 36 µM (inactive)
- GI50 (HOP-62): > 100 µM (inactive)
- GI50 (HOP-92): 43.1 µM (inactive)
- GI50 (HT-29): 36.9 µM (inactive)
- GI50 (Hs-578T): 44.2 µM (inactive)
- GI50 (IGROV-1): 63.1 µM (inactive)
- GI50 (K562): 68.7 µM (inactive)
- GI50 (KM12): 53.2 µM (inactive)
- GI50 (LOX IMVI): 68.4 µM (inactive)
- GI50 (M14): > 100 µM (inactive)
- GI50 (MCF7): 67 µM (inactive)
- GI50 (MDA-MB-231): 45.6 µM (inactive)
- GI50 (MDA-MB-435): 85.3 µM (inactive)
- GI50 (MDA-N): > 100 µM (inactive)
- GI50 (MOLT-4): > 100 µM (inactive)
- GI50 (Malme-3M): 43.1 µM (inactive)
- GI50 (NCI-H226): > 100 µM (inactive)
- GI50 (NCI-H23): > 100 µM (inactive)
- GI50 (NCI-H460): 10.6 µM (inactive)
- GI50 (NCI-H522): 20.6 µM (inactive)
- GI50 (NCI/ADR-RES): 44 µM (inactive)
- GI50 (OVCAR-3): 20.5 µM (inactive)
- GI50 (OVCAR-4): 70.3 µM (inactive)
- GI50 (OVCAR-5): 68.9 µM (inactive)
- GI50 (OVCAR-8): 54.3 µM (inactive)
- GI50 (PC-3): > 100 µM (inactive)
- GI50 (RPMI-8226): > 100 µM (inactive)
- GI50 (RXF 393): 34 µM (inactive)
- GI50 (SF-268): 49.8 µM (inactive)
- GI50 (SF-295): > 100 µM (inactive)
- GI50 (SF-539): > 100 µM (inactive)
- GI50 (SK-MEL-28): > 100 µM (inactive)
- GI50 (SK-MEL-2): > 100 µM (inactive)
- GI50 (SK-MEL-5): 12.4 µM (inactive)
- GI50 (SK-OV-3): > 100 µM (inactive)
- GI50 (SN12C): 56.9 µM (inactive)
- GI50 (SNB-19): > 100 µM (inactive)
- GI50 (SNB-75): 27.5 µM (inactive)
- GI50 (SR): 30.2 µM (inactive)
- GI50 (SW-620): 73.6 µM (inactive)
- GI50 (T47D): 49.5 µM (inactive)
- GI50 (TK-10): > 100 µM (inactive)
- GI50 (U-251): 27.4 µM (inactive)
- GI50 (UACC-257): 30.4 µM (inactive)
- GI50 (UACC-62): 45.9 µM (inactive)
- GI50 (UO-31): 57.8 µM (inactive)
